US12565489B2, “Heterocyclyl pyrimidines and triazines as novel fungicides” (Bayer Aktiengesellschaft, priority 2020, dated 2026)

Legend:
Pyrenophora teres = Pyrenophora teres in vitro cell test; type: cell-based; settings: 144 h, 20 ppm of active ingredient, 6 days incubation, liquid culture, spectrometric measurement of mycelium growth, read-out: efficacy (inhibition of fungal growth)
Experimental: (§1) • Solvent: DMSO • Culture medium: 14.6 g anhydrous D-glucose (VWR), 7.1 g Mycological Peptone (Oxoid), 1.4 g granulated Yeast Extract (Merck), QSP 1 liter • Inoculum: spore suspension Fungicides were solubilized in DMSO and the solution used to prepare the required range of concentrations. […] A spore suspension of P. teres was prepared and diluted to the desired spore density. Fungicides were evaluated for their ability to inhibit spore germination and mycelium growth in liquid culture assay. The compounds were added in the desired concentration to the culture medium with spores. After 6 days incubation, fungi-toxicity of compounds was determined by spectrometric measurement of mycelium growth. Inhibition of fungal growth was determined by comparing the absorbance values in wells containing the fungicides with the absorbance in control wells without fungicides.

Botrytis cinerea [1] = assay: Botrytis cinerea in vitro cell test; type: cell-based; settings: 144 h, 20 ppm of active ingredient, 6 days incubation, liquid culture, spectrometric measurement of mycelium growth, read-out: efficacy (inhibition of fungal growth)
Experimental: (§2) • Solvent: DMSO • Culture medium: 1 g KH2PO4 (VWR), 1 g K2HPO4 (VWR), 0.5 g Urea (VWR), 3 g KNO3 (Prolabo), 10 g saccharose (VWR), 0.5 g MgSO4, 7H2O (Sigma), 0.07 g CaCl2, 2H2O (Prolabo), 0.2 mg MnSO4, H2O (Sigma), 0.6 mg CuSO4, 5H2O (Sigma), 7.9 mg ZnSO4, 7H2O (Sigma), 0.1 mg H3BO3 (Merck), 0.14 mg NaMoO4, 2H2O (Sigma), 2 mg thiamine (Sigma), 0.1 mg biotine (VWR), 4 mg FeSO4, 7H2O (Sigma), QSP 1 liter • Inoculum: spore suspension Fungicides were solubilized in DMSO and the solution used to prepare the required range of concentrations. […] A spore suspension of B. cinerea was prepared and diluted to the desired spore density. Fungicides were evaluated for their ability to inhibit spore germination and mycelium growth in liquid culture assay. The compounds were added in the desired concentration to the culture medium with spores. After 6 days incubation, fungi-toxicity of compounds was determined by spectrometric measurement of mycelium growth. Inhibition of fungal growth was determined by comparing the absorbance values in wells containing the fungicides with the absorbance in control wells without fungicides.

[2] = tested on: Colletotrichum lindemuthianum; assay: Colletotrichum lindemuthianum in vitro cell test; type: cell-based; settings: 144 h, 20 ppm of active ingredient, 6 days incubation, liquid culture, spectrometric measurement of mycelium growth, read-out: efficacy (inhibition of fungal growth)
Experimental: as §1, with “of C. lindemuthianum” for “of P. teres”, “inhibit spores” for “inhibit spore”

[3] = Measurement of Log P values by HPLC on reversed phase columns (EEC directive 79/831 Annex V.A8); type: physicochemical; settings: LogP
Experimental: Measurement of Log P values as provided herein was performed according to EEC directive 79/831 Annex V.A8 by HPLC (High Performance Liquid Chromatography) on reversed phase columns with the following methods: • ^[a] Log P value is determined by measurement of LC-UV, in an acidic range, with 0.1% formic acid in water and acetonitrile as eluent (linear gradient from 10% acetonitrile to 95% acetonitrile). • ^[b] Log P value is determined by measurement of LC-UV, in a neutral range, with 0.001 molar ammonium acetate solution in water and acetonitrile as eluent (linear gradient from 10% acetonitrile to 95% acetonitrile). • ^[c] Log P value is determined by measurement of LC-UV, in an acidic range, with 0.1% phosphoric acid and acetonitrile as eluent (linear gradient from 10% acetonitrile to 95% acetonitrile).
If more than one Log P value is available within the same method, all the values are given and separated by “+”.
Calibration was done with straight-chain alkan2-ones (with 3 to 16 carbon atoms) with known Log P values (measurement of Log P values using retention times with linear interpolation between successive alkanones). Lambda-max-values were determined using UV-spectra from 200 nm to 400 nm and the peak values of the chromatographic signals

Pyricularia oryzae = assay: microbe, parasite or virus in culture; type: cell-based; settings: 120 h, read-out: efficacy (inhibition of fungal growth)
Alternaria alternata = Alternaria alternata in vitro cell test; type: cell-based; settings: 120 h, 20 ppm of active ingredient, 5 days incubation, liquid culture, spectrometric measurement of mycelium growth, read-out: efficacy (inhibition of fungal growth)
Experimental: as §1, with “of A. alternata” for “of P. teres”, “After 5” for “After 6”

Septoria tritici = Septoria tritici in vitro cell test; type: cell-based; settings: Zymoseptoria tritici, 168 h; 20 ppm of active ingredient; 7 days incubation; liquid culture, spectrometric measurement of mycelium growth; read-out: efficacy (inhibition of fungal growth)
Experimental: as §2, with “S. tritici” for “B. cinerea”, “After 6 days incubation, fungi-toxicity of compounds was determined by spectrometric measurement of mycelium growth.” left out

Alternaria brassicae = assay: In vivo preventive test on Alternaria brassicae (leaf spot on radish or cabbage); settings: 144 h, 500 ppm of active ingredient, preventive spray on young radish or cabbage plants, evaluated 6 days after inoculation, read-out: efficacy
Experimental: (§3) The active ingredients were made soluble and homogenized in a mixture of Dimethyl sulfoxide/Acetone//Tween®80 and then diluted in water to the desired concentration. The young plants of radish or cabbage were treated by spraying the active ingredient prepared as described above. Control plants were treated only with an aqueous solution of Acetone/Dimethyl sulfoxide/Tween® 80. After 24 hours, the plants were contaminated by spraying the leaves with an aqueous suspension of Alternaria brassicae spores.

Botrytis cinerea [4] = assay: In vivo preventive test on Botrytis cinerea (grey mould); settings: 500 ppm of active ingredient, preventive spray on young gherkin or cabbage plants, evaluated 4 to 5 days after inoculation, read-out: efficacy
Experimental: as §3, with “gherkin” for “radish”, “Botrytis cinerea” for “Alternaria brassicae”

Sphaerotheca fuliginea = assay: In vivo preventive test on Sphaerotheca fuliginea (powdery mildew on cucurbits); settings: Podosphaera fuliginea, 192 h; 500 ppm of active ingredient; preventive spray on young gherkin plants; evaluated 8 days after inoculation; read-out: efficacy
Experimental: as §3, with “gherkin” for “radish or cabbage”, “Sphaerotheca fuliginea” for “Alternaria brassicae”

Row | Structure (SMILES) | inhibition at 20 ppm (Pyrenophora teres) [%] | inhibition at 20 ppm (Botrytis cinerea [1]) [%] | inhibition at 20 ppm [2] [%] | chromatographic logP [3] | inhibition at 20 ppm (Pyricularia oryzae) [%] | inhibition at 20 ppm (Alternaria alternata) [%] | inhibition at 20 ppm (Septoria tritici) [%] | pest or weed control at 500 ppm (Alternaria brassicae) [%] | pest or weed control at 500 ppm (Botrytis cinerea [4]) [%] | pest or weed control at 500 ppm (Sphaerotheca fuliginea) [%]
1 | Cc1ccc(CC2CON=C(c3nc(C)ncc3Oc3cccc([N+](=O)[O-])c3)N2)c(C)c1 (racemic) [Compound I-003, (5RS)-5-(2,4-dimethylbenzyl)-3-[2-methyl-5-(3-nitro-phenoxy)pyrimidin-4-yl]-5,6-dihydro-4H-1,2,4-oxadiazine] | 90 to 100 | 90 to 100 | 90 to 100 | 3.78 | 90 to 100 | 90 to 100 | 90 to 100 | 90 to 100 | 90 to 100 | 80 to 89
2 | Cc1ncc(Oc2cccc(Cl)c2)c(C2=NOCC(c3ccc4c(c3)CCC4)N2)n1 (racemic) [Compound I-014, (5RS)-3-[5-(3-chlorophenoxy)-2-methyl-pyrimidin-4-yl]-5-indan-5-yl-5,6-dihydro-4H-1,2,4-oxadiazine] | 90 to 100 | 90 to 100 | 90 to 100 | 4.05 | 90 to 100 | 90 to 100 | 90 to 100 | 90 to 100 | 90 to 100 | 90 to 100
